Measurements as given in the supplement of paper PMC4862054.

What was measured:
BT-474 [1] = conditions: 72 h
Outline: (§1)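 Two sequential readouts followed a 72 h incubation of breast cancer cell lines with compound at 5 concentrations in 10-fold steps over a compound-specific 10,000-fold range: CellTox Green fluorescence (485/520 nm) for cell death, then CellTiter-Glo luminescence, after 10 min at room temperature, for viability. Each plate was normalised to 0.1 % DMSO and a positive kill control. Dose-response curves were fitted for EC50, censored at the top concentration.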

BT-549 [2] = conditions: 72 h
Outline: as §1

HDQ-P1 [3] = conditions: 72 h
Outline: as §1

MCF-10A [4] = conditions: 72 h
Outline: as §1

MDA-MB-231 [5] = conditions: 72 h
Outline: as §1

MCF-10A [6] = conditions: 72 h; remark: listed apart in the source
Procedure: (§2)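 Drug sensitivity and resistance testing (DSRT) of breast cancer cell lines in 384-well plates, 5 concentrations in 10-fold dilutions over a compound-specific 10,000-fold range. After 72 h, cytotoxicity was read by CellTox Green fluorescence and viability by CellTiter-Glo luminescence (multiplexed), normalised to DMSO and benzethonium chloride controls. EC50 is the inflection point of the fitted dose-response curve (bottom asymptote free, so it can be relative for partial curves) and is censored at the highest tested concentration. Rows with DSS 0 (no meaningful response) were excluded.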

MDA-MB-231 [7] = conditions: 72 h; remark: listed apart in the source
Procedure: as §2

MDA-MB-468 [8] = conditions: 72 h
Procedure: as §2

BT-474 [9] = experiment: normalised response (% of control), CellTiter-Glo; higher = more viable cells (100 = DMSO, 0 = benzethonium chloride kill control); conditions: incubation time: 72 h
Outline: (§3)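 Each value is the plate-normalised signal at one concentration of the series. Breast cancer cell lines (20 µl suspension) were incubated 72 h in 384-well plates with compound at 5 concentrations in 10-fold steps over a compound-specific 10,000-fold range. CellTox Green and then CellTiter-Glo were read, and each plate was scaled to 0.1 % DMSO (100) and a positive kill control (0).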

BT-549 [10] = experiment: as above; conditions: incubation time: 72 h
Outline: as §3

CAL-120 [11] = experiment: as above; conditions: incubation time: 72 h
Outline: as §3

CAL-148 [12] = experiment: as above; conditions: incubation time: 72 h
Outline: as §3

CAL-51 [13] = experiment: as above; conditions: incubation time: 72 h
Outline: as §3

CAL-85-1 [14] = experiment: as above; conditions: incubation time: 72 h
Outline: as §3

DU-4475 [15] = experiment: as above; conditions: incubation time: 72 h
Outline: as §3

HCC1143 [16] = experiment: as above; conditions: incubation time: 72 h
Outline: as §3

HCC1599 [17] = experiment: as above; conditions: incubation time: 72 h
Outline: as §3

HCC1937 [18] = experiment: as above; conditions: incubation time: 72 h
Outline: as §3

HDQ-P1 [19] = experiment: as above; conditions: incubation time: 72 h
Outline: as §3

Hs578T [20] = experiment: as above; conditions: incubation time: 72 h
Outline: as §3

MCF-10A [21] = experiment: as above; conditions: incubation time: 72 h
Outline: as §3

MDA-MB-231 [22] = experiment: as above; conditions: incubation time: 72 h
Outline: as §3

MDA-MB-436 [23] = experiment: as above; conditions: incubation time: 72 h
Outline: as §3

MDA-MB-453 [24] = experiment: as above; conditions: incubation time: 72 h
Outline: as §3

MDA-MB-468 [25] = experiment: as above; conditions: incubation time: 72 h
Outline: as §3

MFM-223 [26] = experiment: as above; conditions: incubation time: 72 h
Outline: as §3

SK-BR-3 [27] = experiment: as above; conditions: incubation time: 72 h
Outline: as §3

BT-474 [28] = experiment: normalised viability (% of control), CellTiter-Blue; higher = more viable cells (100 = DMSO, 0 = benzethonium chloride kill control); conditions: incubation time: 72 h
Outline: (§4)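 Seeded at 20 µl suspension per well onto compound-loaded 384-well plates, breast cancer cell lines were incubated 72 h. CellTiter-Blue fluorescence at 560/590 nm was then read, with each plate normalised to vehicle (100) and a positive kill control (0). Normalised viability is reported at a single listed concentration of the series.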

BT-549 [29] = experiment: as above; conditions: incubation time: 72 h
Outline: as §4

CAL-120 [30] = experiment: as above; conditions: incubation time: 72 h
Outline: as §4

CAL-148 [31] = experiment: as above; conditions: incubation time: 72 h
Outline: as §4

CAL-51 [32] = experiment: as above; conditions: incubation time: 72 h
Outline: as §4

CAL-85-1 [33] = experiment: as above; conditions: incubation time: 72 h
Outline: as §4

DU-4475 [34] = experiment: as above; conditions: incubation time: 72 h
Outline: as §4

HCC1143 [35] = experiment: as above; conditions: incubation time: 72 h
Outline: as §4

HCC1599 [36] = experiment: as above; conditions: incubation time: 72 h
Outline: as §4

HCC1937 [37] = experiment: as above; conditions: incubation time: 72 h
Outline: as §4

HDQ-P1 [38] = experiment: as above; conditions: incubation time: 72 h
Outline: as §4

Hs578T [39] = experiment: as above; conditions: incubation time: 72 h
Outline: as §4

MDA-MB-231 [40] = experiment: as above; conditions: incubation time: 72 h
Outline: as §4

MDA-MB-436 [41] = experiment: as above; conditions: incubation time: 72 h
Outline: as §4

MDA-MB-453 [42] = experiment: as above; conditions: incubation time: 72 h
Outline: as §4

MDA-MB-468 [43] = experiment: as above; conditions: incubation time: 72 h
Outline: as §4

MFM-223 [44] = experiment: as above; conditions: incubation time: 72 h
Outline: as §4

SK-BR-3 [45] = experiment: as above; conditions: incubation time: 72 h
Outline: as §4

SMILES	normalised response (BT-474 [9]) [%]	normalised response (BT-549 [10]) [%]	normalised response (CAL-120 [11]) [%]	normalised response (CAL-148 [12]) [%]	normalised response (CAL-51 [13]) [%]	normalised response (CAL-85-1 [14]) [%]	normalised response (DU-4475 [15]) [%]	normalised response (HCC1143 [16]) [%]	normalised response (HCC1599 [17]) [%]	normalised response (HCC1937 [18]) [%]	normalised response (HDQ-P1 [19]) [%]	normalised response (Hs578T [20]) [%]	normalised response (MCF-10A [21]) [%]	normalised response (MDA-MB-231 [22]) [%]	normalised response (MDA-MB-436 [23]) [%]	normalised response (MDA-MB-453 [24]) [%]	normalised response (MDA-MB-468 [25]) [%]	normalised response (MFM-223 [26]) [%]	normalised response (SK-BR-3 [27]) [%]	normalised viability (BT-474 [28]) [%]	other results
CCC(C)(C)C(=O)O[C@H]1C[C@@H](C)C=C2C=C[C@H](C)[C@H](CC[C@@H]3C[C@@H](O)CC(=O)O3)[C@H]21 [Simvastatin]																					EC50, CellTiter-Glo (BT-474 [1]): 1.2 µM; EC50, CellTiter-Glo (BT-549 [2]): > 10 µM; EC50, CellTiter-Glo (HDQ-P1 [3]): 1.7 µM; EC50, CellTiter-Glo (MCF-10A [4]): 6.39 µM; EC50, CellTiter-Glo (MDA-MB-231 [5]): 3.15 µM; EC50, CellTox Green (MCF-10A [6]): 2.59 µM; EC50, CellTox Green (MDA-MB-231 [7]): 1.68 µM; EC50, CellTox Green (MDA-MB-468 [8]): 0.511 µM
CN(C)/N=N/c1[nH]cnc1C(N)=O [Dacarbazine] (1 nM)	101	101	94.7	100	99.1	96.7	104	104	96.7	101	96	107	100	105	122	116	102	103	99.9	99.6	normalised viability (BT-549 [29]): 108%; normalised viability (CAL-120 [30]): 89.3%; normalised viability (CAL-148 [31]): 99.7%; normalised viability (CAL-51 [32]): 87.7%; normalised viability (CAL-85-1 [33]): 90.2%; normalised viability (DU-4475 [34]): 104%; normalised viability (HCC1143 [35]): 92.2%; normalised viability (HCC1599 [36]): 81.7%; normalised viability (HCC1937 [37]): 108%; normalised viability (HDQ-P1 [38]): 105%; normalised viability (Hs578T [39]): 106%; normalised viability (MDA-MB-231 [40]): 94.8%; normalised viability (MDA-MB-436 [41]): 114%; normalised viability (MDA-MB-453 [42]): 96.5%; normalised viability (MDA-MB-468 [43]): 103%; normalised viability (MFM-223 [44]): 101%; normalised viability (SK-BR-3 [45]): 106%
N[C@@H](CSC(c1ccccc1)(c1ccccc1)c1ccccc1)C(=O)O [S-trityl-L-cysteine] (4 nM)	105	96.5	106	103	81	101	95.7	97	87.5	92	103	95.5	97.6	100	85.6	107	101	96.9	99.6	91.1	normalised viability (BT-549 [29]): 85.8%; normalised viability (CAL-120 [30]): 115%; normalised viability (CAL-148 [31]): 112%; normalised viability (CAL-51 [32]): 91.3%; normalised viability (CAL-85-1 [33]): 122%; normalised viability (DU-4475 [34]): 116%; normalised viability (HCC1143 [35]): 143%; normalised viability (HCC1599 [36]): 108%; normalised viability (HCC1937 [37]): 89%; normalised viability (HDQ-P1 [38]): 96.6%; normalised viability (Hs578T [39]): 106%; normalised viability (MDA-MB-231 [40]): 104%; normalised viability (MDA-MB-436 [41]): 109%; normalised viability (MDA-MB-453 [42]): 88.6%; normalised viability (MDA-MB-468 [43]): 101%; normalised viability (MFM-223 [44]): 105%; normalised viability (SK-BR-3 [45]): 88.2%
CNCc1ccc(-c2[nH]c3cc(F)cc4c3c2CCNC4=O)cc1 [Rucaparib] (1 nM)	92.6	96.9	96.3	98.2	117	100	99.4	94.1	98.4	97.8	97.2	102	84.6	99.1	98.5	98.2	96.8	95.9	82.4	109	normalised viability (BT-549 [29]): 95.3%; normalised viability (CAL-120 [30]): 79.5%; normalised viability (CAL-148 [31]): 96.4%; normalised viability (CAL-51 [32]): 113%; normalised viability (CAL-85-1 [33]): 88.6%; normalised viability (DU-4475 [34]): 111%; normalised viability (HCC1143 [35]): 103%; normalised viability (HCC1599 [36]): 122%; normalised viability (HCC1937 [37]): 108%; normalised viability (HDQ-P1 [38]): 68.1%; normalised viability (Hs578T [39]): 97.4%; normalised viability (MDA-MB-231 [40]): 105%; normalised viability (MDA-MB-436 [41]): 104%; normalised viability (MDA-MB-453 [42]): 95.2%; normalised viability (MDA-MB-468 [43]): 110%; normalised viability (MFM-223 [44]): 91.6%; normalised viability (SK-BR-3 [45]): 100%
COc1cc2nccc(Oc3ccc(NC(=O)C4(C(=O)Nc5ccc(F)cc5)CC4)cc3)c2cc1OC [Cabozantinib] (0.1 nM)	101	102	103	99.7	87.8	97.1	95.2	96.2	113	100	95.2	100	92.2	104	83.3	116	103	99.5	97.5	100	normalised viability (BT-549 [29]): 115%; normalised viability (CAL-120 [30]): 83.8%; normalised viability (CAL-148 [31]): 107%; normalised viability (CAL-51 [32]): 103%; normalised viability (CAL-85-1 [33]): 90.2%; normalised viability (DU-4475 [34]): 101%; normalised viability (HCC1143 [35]): 95.4%; normalised viability (HCC1599 [36]): 77.6%; normalised viability (HCC1937 [37]): 94.8%; normalised viability (HDQ-P1 [38]): 96.1%; normalised viability (Hs578T [39]): 97.4%; normalised viability (MDA-MB-231 [40]): 115%; normalised viability (MDA-MB-436 [41]): 103%; normalised viability (MDA-MB-453 [42]): 99.4%; normalised viability (MDA-MB-468 [43]): 105%; normalised viability (MFM-223 [44]): 93%; normalised viability (SK-BR-3 [45]): 101%
